Measured values published in US12227501B2, “3-amino-2-[2-(acylamino)pyridin-4-yl]-1,5,6,7-tetrahydro-4h-pyrrolo[3,2-c]pyridin-4-one as CSNK1 inhibitors” (Bayer Aktiengesellschaft, priority 2019, dated 2025).

Assays:
[1] = target: T1, human CSNK1A1 (Homo sapiens (Human), UniProt P48729); assay: CSNK1A1 Assay 1 (ADP-Glo, 1 μM ATP); type: biochemical; conditions: read-out: CSNK1A1 Assay 1 IC50 [mol/l] (median)
Protocol: CSNK1A1-inhibitory activity of compounds of the present invention in presence of 1 μM adenosine-tri-phosphate (ATP) was quantified employing the CSNK1A1 assay as described in the following paragraphs. In essence, the enzyme activity is measured by quantification of the adenosine-di-phosphate (ADP), which is generated as a co-product of the enzyme reaction, via the “ADP-Glo™ Kinase Assay” kit from the company Promega. This detection system works as follows: In a first step the ATP not consumed in the kinase reaction is quantitatively converted to cAMP employing an adenylate cyclase (“ADP-Glo-reagent”), then the adenylate cyclase is stopped and the ADP generated in the kinase reaction converted to ATP which generates in a luciferase-based reaction a glow-luminescence signal (“Kinase Detection Reagent”). Recombinant fusion protein of N-terminal Glutathion-S-Transferase (GST) and full-length human CSNK1A1, expressed by baculovirus infected insect cells and purified via Glutathion affinity chromatography, was purchased from Life Technologies (product no. PV4174) and used as enzyme. As substrate for the kinase reaction the biotinylated peptide Btn-Ahx-[…] (C-terminus in amide form) was used which can be purchased e.g. from the company Biosyntan (Berlin-Buch, Germany).
For the assay 50 nl of a 100 fold concentrated solution of the test compound in DMSO was pipetted into a white 1536-well microtiter plate (Greiner Bio-One, Frickenhausen, Germany), 2 μL of a solution of CSNK1A1 in aqueous assay buffer [50 mM HEPES pH 7.5, 10% (v/v) glycerol, 10 mM MgCl2, 50 mM NaCl, 1 mM dithiothreitol, 0.01% (w/v) bovine serum albumin, 0.01% (v/v) Triton X-100] were added and the mixture was incubated for 15 min at 22° C. to allow pre-binding of the test compounds to the enzyme before the start of the kinase reaction. […] The concentration of CSNK1A1 was adjusted depending of the activity of the enzyme lot and was chosen appropriate to have the assay in the linear range, a typical concentration is 0.15 ng/μL. The reaction was stopped by the addition of 2.5 μL of “ADP-Glo-reagent” (1:1.5 fold diluted with water) and the resulting mixture was incubated at 22° C. for 1 h to convert the ATP not consumed in the kinase reaction completely […]. Subsequently 2.5 μL of the “kinase detection reagent” (1.2 fold more concentrated than recommended by the producer) were added, the resulting mixture was incubated at 22° C. for 1 h and then the luminescence measured with a suitable measurement instrument (e.g. Viewlux™ from Perkin-Elmer). The amount of emitted light was taken as a measure for the amount of ADP generated and thereby for the activity of the CSNK1A1.

[2] = target: T1, human CSNK1A1; assay: CSNK1A1 Assay 2 (ADP-Glo, 1 μM ATP); type: biochemical; conditions: substrate biotin-Ahx-KRRRAL-pS-VASLPGL, read-out: CSNK1A1 Assay 2 IC50 [mol/l] (median)
Outline: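 Full-length human CSNK1A1 as an N-terminal GST fusion (baculovirus/insect cells) with biotinylated peptide substrate biotin-Ahx-KRRRAL-pS-VASLPGL and 1 μM ATP, in HEPES pH 7.5 buffer. Compounds were pre-incubated with enzyme (~0.0375 ng/μL) for 15 min at 22 °C. Generated ADP was read by ADP-Glo luminescence as the activity measure.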

[3] = substrate Btn-Ahx-SGSEGDSESGEEEG

T1 sequence (P48729 whole entry): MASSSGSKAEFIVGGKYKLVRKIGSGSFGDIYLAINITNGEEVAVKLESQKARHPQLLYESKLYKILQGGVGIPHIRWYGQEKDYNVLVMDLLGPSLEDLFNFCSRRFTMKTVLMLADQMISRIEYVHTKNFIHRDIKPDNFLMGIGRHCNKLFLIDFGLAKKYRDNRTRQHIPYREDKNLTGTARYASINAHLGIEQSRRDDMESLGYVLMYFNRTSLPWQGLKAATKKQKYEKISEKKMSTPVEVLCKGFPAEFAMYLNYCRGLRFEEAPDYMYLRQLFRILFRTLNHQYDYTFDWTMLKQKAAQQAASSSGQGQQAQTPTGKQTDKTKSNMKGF

| SMILES | IC50 ([1]; substrate Btn-Ahx-[…]) | IC50 [2] | IC50 [1, 3] |
| --- | --- | --- | --- |
| C[C@H](C(=O)Nc1cc(-c2[nH]c3c(c2Nc2ccccc2)C(=O)N(C)CC3)ccn1)c1ccc(F)cc1 (single isomer, unassigned) [Example 5] | 3.62 nM | 4.45 nM |  |
| CN1CCc2[nH]c(-c3ccnc(NC(=O)Cc4ccc(F)cc4)c3)c(Nc3ccccc3)c2C1=O [Example 1, N-[4-(3-anilino-5-methyl-4-oxo-4,5,6,7-tetrahydro-1H-pyrrolo[3,2-c]pyridin-2-yl)pyridin-2-yl]-2-(4-fluorophenyl)acetamide] |  | 1.97 nM | 2.54 nM |
| C[C@@H](C(=O)Nc1cc(-c2[nH]c3c(c2Nc2ccccc2)C(=O)N(C)CC3)ccn1)c1ccc(F)cc1 (single isomer, unassigned) [Example 6] | 33.3 nM | 44 nM |  |
| CC(C(=O)Nc1cc(-c2[nH]c3c(c2Nc2ccccc2)C(=O)N(C)CC3)ccn1)c1ccc(F)cc1 (centres unmarked) [Example 4, N-[4-(3-anilino-5-methyl-4-oxo-4,5,6,7-tetrahydro-1H-pyrrolo[3,2-c]pyridin-2-yl)pyridin-2-yl]-2-(4-fluorophenyl)propanamide] |  | 5.49 nM | 11.2 nM |
